Data: US12257287B2, “Glucagon-derived peptide and use thereof” (Tianjin Institute of Pharmaceutical Research Co., Ltd., priority 2018, dated 2025)
Values after ≈ are worked out from the molar mass of the structure shown. Marks after values point to notes of the source that are not given here. Numbered stars: 1 amine (or outer) side, 2 acyl side, 3 side chain; on linkers, the order of the positions; unused ones are H or OH. Square brackets hold non-standard residues; d marks the D form. Side chains are listed from the residue outwards. Peptide text beside a SMILES is read from it. * marks the point of attachment. C20 diacid = O=C(O)CCCCCCCCCCCCCCCCCCC(=O)*; C18 diacid = O=C(O)CCCCCCCCCCCCCCCCC(=O)*; γGlu = O=C(O)[C@H](CCC(=O)[*:2])N[*:1]; AEEA = NCCOCCOCC(=O)O; Aib = CC(C)(N)C(=O)O

Tests used:
[1] = Short-term administration: food intake and body weight in DIO mice; format: in vivo; conditions: 30 nmol/kg once every 24 h, twice, − decrease; for Rate of change in food intake (%): at 48 hours vs day before administration; for Body weight change: at 48 hours
In short: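 DIO mice (mean body weight 52.5 g), 5 per group, dosed at 30 nmol/kg every 24 h for two doses, in 10 mM PBS pH 7.4; controls received solvent. Food intake and body weight at 48 h expressed as change rate versus the day before dosing.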

GC receptor = target: T1, GC receptor (Homo sapiens, UniProt P47871); assay: GC receptor mediated cAMP production in vitro (HEK293 cells transfected with GC receptor); format: cell-based; conditions: 20 min at 37° C., read-out: GCGR (nM EC50)
T1 construct: expressed in transfected cells; host or cells: HEK293 cells
Text: (§1) The medium was removed, the cells were lysed, and cAMP values were detected referring to the detection method described for the assay kit.

[2] = Accelerated chemical stability in injection solvent system (HPLC-UV); format: physicochemical; conditions: 14 days, phosphate buffer pH 7.3 with Tween 80 and phenol, main peak area vs day 0
In short: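 Compound dissolved in 10 mM pH 8.5 sodium hydrogen phosphate buffer, adjusted to pH 7.3, with Tween 80 and phenol added. Solutions stored 14 days at 10 °C and 37 °C; HPLC-UV main-peak area by normalisation compared against day 0.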

physchem = format: physicochemical
[3] = Glucose tolerance test in glucose-loaded DIO mice; format: in vivo; conditions: for glucose tolerance / blood glucose lowering (in words): conclusions on Tables 4 and 6
In short: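 DIO mice fasted 16 h received compound subcutaneously; 1 h later, glucose 1 g/kg was given intraperitoneally. Blood glucose measured at 0.5, 1 and 1.5 h; AUC compared with model control group to give blood glucose inhibition rate (%).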

human GLP-1 receptor = target: T2, human GLP-1 receptor (Homo sapiens, UniProt P43220); assay: GLP-1 receptor mediated cAMP production in vitro; format: cell-based; conditions: cells transfected with human GLP-1 receptor, 20 min at 37° C., read-out: GLP-1R (nM EC50)
T2 construct: expressed in transfected cells; host or cells: Chinese guinea pig lung cells [sic]
Text: as §1

[4] = Effect on body weight of DIO mice after 14 days' administration; format: in vivo, C57BL/6J mice; conditions: DIO mice; for body weight reduction (in words): 14 days, conclusions on Tables 3 and 5
In short: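 C57BL/6J mice on H10060 high-fat diet for 34 weeks (DIO; 45.0–52.0 g), 5 per group, dosed subcutaneously once daily for 14 days; controls received saline. Body weight change (%) = (initial − last-day weight)/initial weight; positive values mean loss.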

[5] = pH 7.5, Solubility, pH 7.5, 10 mM phosphate buffer
[6] = pH 7.5, Solubility, pH 7.5, 20 mM phosphate buffer
[7] = pH 8, Solubility, pH 8.0, 10 mM phosphate buffer
[8] = pH 8, Solubility, pH 8.0, 20 mM phosphate buffer
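Wherever Solubility is given: compound added at 2 mg per mL of phosphate buffer, with the dissolved amount determined in the supernatant.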

T1 sequence (P47871 26-477): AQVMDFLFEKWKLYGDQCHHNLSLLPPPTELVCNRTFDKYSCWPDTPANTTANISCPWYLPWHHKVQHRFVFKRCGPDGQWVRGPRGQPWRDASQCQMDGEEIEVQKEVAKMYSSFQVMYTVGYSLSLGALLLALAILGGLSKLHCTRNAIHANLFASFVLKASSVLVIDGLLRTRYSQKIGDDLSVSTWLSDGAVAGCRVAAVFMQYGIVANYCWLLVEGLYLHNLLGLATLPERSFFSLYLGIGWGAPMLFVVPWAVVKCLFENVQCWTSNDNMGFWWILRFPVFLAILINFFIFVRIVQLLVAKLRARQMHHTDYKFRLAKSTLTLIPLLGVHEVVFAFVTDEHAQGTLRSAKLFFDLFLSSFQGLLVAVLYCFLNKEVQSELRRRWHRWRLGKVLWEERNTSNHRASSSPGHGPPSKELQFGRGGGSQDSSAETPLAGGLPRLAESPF
T2 sequence (P43220 24-463): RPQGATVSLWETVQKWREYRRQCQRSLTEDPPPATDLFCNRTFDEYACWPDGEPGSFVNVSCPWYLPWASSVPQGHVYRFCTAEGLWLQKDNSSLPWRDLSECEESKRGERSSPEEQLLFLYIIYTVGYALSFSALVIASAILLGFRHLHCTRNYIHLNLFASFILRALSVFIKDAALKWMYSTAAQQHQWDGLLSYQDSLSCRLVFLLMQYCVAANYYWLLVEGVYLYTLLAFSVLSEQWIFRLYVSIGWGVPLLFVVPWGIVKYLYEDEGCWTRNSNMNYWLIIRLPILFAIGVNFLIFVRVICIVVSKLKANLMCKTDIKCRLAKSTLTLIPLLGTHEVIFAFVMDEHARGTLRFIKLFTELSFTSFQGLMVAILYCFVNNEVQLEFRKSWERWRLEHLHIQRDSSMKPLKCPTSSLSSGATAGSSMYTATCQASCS

SMILES	Rate of change in food intake (%) [1]	Body weight change [1]	EC50 (GC receptor)	Change in purity % (10° C.) [2]	Change in purity % (37° C.) [2]	solubility (physchem; [5])	solubility (physchem; [6])	solubility (physchem; [7])	solubility (physchem; [8])	AUC of blood glucose, Table 4 ([3]; DIO mice fasted 16 h, glucose 1 g/kg i.p. 1 h after s.c. administration, 0.5, 1, 1.5 h)	AUC reduction rate (%), Table 4 ([3]; blood glucose inhibition rate compared with model control group, DIO mice, glucose 1 g/kg i.p.)	EC50 (human GLP-1 receptor)	body weight change rate, Table 3 ([4]; subcutaneous injection every day for 14 days, (initial−last)/initial, positive values indicate a decrease)	glucose tolerance / blood glucose lowering (in words) ([3]; DIO mice)	body weight reduction (in words) [4]
CCCCCCCCCCCCCCCC(=O)N[C@@H](CCC(=O)N[C@@H](CCC(=O)NCCCC[C@H](NC(=O)[C@H](CC(=O)O)NC(=O)[C@H](CO)NC(=O)[C@@H](NC(=O)[C@H](Cc1ccccc1)NC(=O)[C@@H](NC(=O)CNC(=O)[C@H](CCC(N)=O)NC(=O)C(C)(C)NC(=O)[C@@H](N)Cc1c[nH]cn1)[C@@H](C)O)[C@@H](C)O)C(=O)N[C@@H](CO)C(=O)N[C@@H](CCCCN)C(=O)N[C@@H](Cc1ccc(O)cc1)C(=O)N[C@@H](CC(C)C)C(=O)N[C@@H](CCC(=O)O)C(=O)N[C@@H](CCC(=O)O)C(=O)N[C@@H](CCCNC(=N)N)C(=O)N[C@@H](C)C(=O)N[C@@H](C)C(=O)N[C@@H](CCCCN)C(=O)N[C@@H](CCC(=O)O)C(=O)N[C@@H](Cc1ccccc1)C(=O)N[C@H](C(=O)N[C@@H](C)C(=O)N[C@@H](Cc1c[nH]c2ccccc12)C(=O)N[C@@H](CC(C)C)C(=O)N[C@@H](CCC(=O)O)C(=O)N[C@@H](C)C(=O)NCC(=O)NCC(=O)N1CCC[C@H]1C(=O)N[C@@H](CO)C(=O)N[C@@H](CO)C(=O)NCC(N)=O)C(C)C)C(=O)O)C(=O)O [Compound 4] (HELM PEPTIDE1{H.[Aib].Q.G.T.F.T.S.D.K.S.K.Y.L.E.E.R.A.A.K.E.F.V.A.W.L.E.A.G.G.P.S.S.G.[am]}|PEPTIDE2{[CCCCCCCCCCCCCCCC(=O)[*:2]].[gGlu].[gGlu]}$PEPTIDE1,PEPTIDE2,10:R3-3:R2$$$V2.0; N-terminus assumed)	−42%	-1.5 g	0.024 nM	−0.9%	−3.7%	1820 µg/mL (≈ 437 µM)	1220 µg/mL (≈ 293 µM)	> 2000 µg/mL	> 2000 µg/mL	9.02 ± 1.74 mmol·h/L	57.4** %	0.051 nM	26.0%	–	–
CC[C@H](C)[C@H](NC(=O)[C@H](Cc1ccccc1)NC(=O)[C@H](CCC(=O)O)NC(=O)[C@H](CCCCNC(=O)COCCOCCNC(=O)COCCOCCNC(=O)CC[C@H](NC(=O)CCCCCCCCCCCCCCCCC(=O)O)C(=O)O)NC(=O)[C@H](C)NC(=O)[C@H](CCCCN)NC(=O)[C@H](CCCNC(=N)N)NC(=O)[C@H](CCC(=O)O)NC(=O)[C@H](CC(=O)O)NC(=O)[C@H](CC(C)C)NC(=O)[C@H](Cc1ccc(O)cc1)NC(=O)[C@H](CCCCN)NC(=O)[C@H](CO)NC(=O)[C@H](Cc1ccc(O)cc1)NC(=O)[C@H](CC(=O)O)NC(=O)[C@H](CO)NC(=O)[C@@H](NC(=O)[C@H](Cc1ccccc1)NC(=O)[C@@H](NC(=O)CNC(=O)[C@H](CCC(N)=O)NC(=O)C(C)(C)NC(=O)[C@@H](N)Cc1c[nH]cn1)[C@@H](C)O)[C@@H](C)O)C(=O)N[C@@H](CCC(=O)O)C(=O)N[C@@H](Cc1c[nH]c2ccccc12)C(=O)N[C@@H](CC(C)C)C(=O)N[C@@H](CCC(=O)O)C(=O)NCC(=O)NCC(=O)N1CCC[C@H]1C(=O)N[C@@H](CO)C(=O)N[C@@H](CO)C(=O)NCC(N)=O [Compound 66] (H-H[Aib]QGTFTSDYSKYLDERKAK([AEEA-AEEA-γGlu-C18 diacid])EFIEWLEGGPSSG-NH2; N-terminus assumed)	−56%	-1.7 g	0.058 nM	−2.7%	−5.1%	1490 µg/mL (≈ 334 µM)	1420 µg/mL (≈ 318 µM)	> 2000 µg/mL	1880 µg/mL (≈ 421 µM)	–	–	0.051 nM	–	significantly improved glucose tolerance	significantly reduced body weight
CC[C@H](C)[C@H](NC(=O)[C@H](Cc1ccccc1)NC(=O)[C@H](CCC(=O)O)NC(=O)[C@H](CCCCN)NC(=O)[C@H](C)NC(=O)[C@H](C)NC(=O)[C@H](CCCNC(=N)N)NC(=O)[C@H](CCC(=O)O)NC(=O)[C@H](CCC(=O)O)NC(=O)[C@H](CC(C)C)NC(=O)[C@H](Cc1ccc(O)cc1)NC(=O)[C@H](CCCCN)NC(=O)[C@H](CO)NC(=O)[C@H](CCCCNC(=O)COCCOCCNC(=O)COCCOCCNC(=O)CC[C@H](NC(=O)CCCCCCCCCCCCCCCCCCC(=O)O)C(=O)O)NC(=O)[C@H](CC(=O)O)NC(=O)[C@H](CO)NC(=O)[C@@H](NC(=O)[C@H](Cc1ccccc1)NC(=O)[C@@H](NC(=O)CNC(=O)[C@H](CCC(N)=O)NC(=O)C(C)(C)NC(=O)[C@@H](N)Cc1c[nH]cn1)[C@@H](C)O)[C@@H](C)O)C(=O)N[C@@H](C)C(=O)N[C@@H](Cc1c[nH]c2ccccc12)C(=O)N[C@@H](CC(C)C)C(=O)N[C@@H](CCC(=O)O)C(=O)N[C@@H](C)C(=O)NCC(=O)NCC(=O)N1CCC[C@H]1C(=O)N[C@@H](CO)C(=O)N[C@@H](CO)C(=O)NCC(N)=O [Compound 35] (H-H[Aib]QGTFTSDK([AEEA-AEEA-γGlu-C20 diacid])SKYLEERAAKEFIAWLEAGGPSSG-NH2; N-terminus assumed)	−59%	-3.2 g	0.036 nM	−0.6%	−3.1%	1840 µg/mL (≈ 416 µM)	1170 µg/mL (≈ 264 µM)	> 2000 µg/mL	> 2000 µg/mL	–	–	0.044 nM	–	significantly improved glucose tolerance	significantly reduced body weight
